Type in all cases: cell-based, Salmonella enterica serovar Typhimurium strain SL1344
In series [1] the test system is outer membrane of Salmonella. Kind of series: Outer membrane permeabilization (NPN fluorescence). Details: key to Outer-membrane permeation: -: Effect strength is represented by additional (+) signs.; Effect strength is represented by additional (+) signs.; ++: Effect strength is represented by additional (+) signs.; +++: Effect strength is represented by additional (+) signs. To be noted: for Outer-membrane permeation: summary grade, ASO conjugated to the carrier peptide; for Outer membrane permeabilization, NPN fluorescence (in words): test compounds 10 µM final, added at 14 min, NPN 10 µM, 5 mM HEPES, 5 mM glucose pH 7.2, CTAB and Polymyxin B positive controls. The procedure:
The experiments were performed by modifying previously published protocols ([48]–[50]). Salmonella (WT SL1344, JVS-1574) were grown overnight in 4 ml MHB medium at 37 °C (with shaking at 220 rpm). Then the culture was diluted 1:100 and grown until OD 0.5 (∼2×10^8 cfu/mL). This culture was harvested and washed two times with 5mM HEPES and further diluted to OD 0.2 in 5 mM HEPES supplemented with 5 mM Glucose (pH 7.2). These cells were then incubated with N-phenylnaphthylamine (NPN) (Sigma, USA) at a final concentration of 10 µM. 190 µl of NPN treated cells were transferred into 96-well back plates with transparent bottom and fluorescence (excitation = 350 nm, emission = 420 nm) was recorded for 60 min (reading was performed every minute) using a Synergy H1 plate reader (Biotek). On the fourteenth minute, 10 µl of the test compounds (10 µM final concentration) was added into the wells. CTAB (Sigma, USA) 200 µM or Polymyxin B (Sigma, USA) 10 µg/ml (final concentration of 0.5 µg/ml) were used as positive controls, while water was used as negative control. The fluorescence of the wells were monitored using the same settings as above. The experiment was performed three times and Figure 10 is based on a single representative experiment.

Series [2] deals with acpP mRNA. Kind of series: RNA-seq, target mRNA depletion. The note with it: for acpP depletion (RNA-seq): summary grade, ASO conjugated to the carrier peptide; for acpP mRNA depletion (in words): 5 µM KFF-ASO conjugate, 15 min, ~10^6 cfu/ml. The arrangement: key to acpP depletion (RNA-seq): -: Effect strength is represented by additional (+) signs.; Effect strength is represented by additional (+) signs.; ++: Effect strength is represented by additional (+) signs.; +++: Effect strength is represented by additional (+) signs. The procedure: (§1) RNA isolation was performed using previously published protocols ([30],[31]). Bacterial overnight cultures were diluted 1:100 in fresh MHB and grown to OD600 0.5. The cultures were diluted to approximately 10^6 cfu/ml in non-cation-adjusted MHB. Afterwards, an aliquot of the bacterial solution was transferred into 5 ml low-binding tubes (LABsolute) containing the ASOs solution (adjusted such that the final concentration was 5 μM for all tested compounds). As a negative control, cells were treated with the respective volume of sterile nuclease-free water, which was used as solvent for the ASOs. After incubating the samples for 15 min at 37 °C, RNAprotect Bacteria (Qiagen) was added according to the manufacturer’s instructions. Following a 10-min incubation, cells were pelleted at 4 °C and 21,100 × g for 20 min. The supernatant was discarded and pellets were either directly used or stored at –20°C (<1 day) for subsequent bacterial RNA isolation.
(§2) Total RNA was purified from bacterial pellets using the miRNeasy Mini kit (Qiagen) according to protocol #3 described in ([30]). Briefly, cells were resuspended in 0.5 mg/ml lysozyme (Roth) in TE buffer (pH 8.0) and incubated for 5 min. Afterwards, RLT buffer supplemented with β-mercaptoethanol, and ethanol were added according to the manufacturer’s instructions. After sample loading, column wash-steps were performed according to the manual. RNA concentration was measured with a NanoDrop spectrophotometer.
For transcriptomic analyses, RNA samples were processed and subjected to RNA-seq at Core Unit SysMed (University of Würzburg, Germany). Sequencing was run using a previously published protocol ([31]). Briefly, RNA quality was checked using a 2100 Bioanalyzer with the RNA 6000 Pico/ Nano kit (Agilent Technologies). RNA samples were DNase-treated using DNAse I kit (Thermo Fisher), followed by ribosomal RNA depletion using Lexogen’s RiboCop META rRNA Depletion Kit protocol according to manufacturer’s recommendation. Subsequently, cDNA libraries suitable for sequencing were prepared using CORALL Total RNA-Seq Library Prep protocol (Lexogen) according to manufacturer’s recommendation with 14–25 PCR cycles. Library quality was checked using a 2100 Bioanalyzer with the DNA High Sensitivity kit (Agilent Technologies). Sequencing of pooled libraries, spiked with 5% PhiX control library, was performed at 10 million reads/sample in single-end mode with 75 nt read length on the NextSeq 500 platform (Illumina) using High output sequencing kits. Demultiplexed FASTQ files were generated with bcl2fastq2 v2.20.0.422 (Illumina).
RNA-seq data analysis was performed similarly to our previous analysis of PNA activity in S. enterica ([30]). Briefly, adapters and low-quality bases (Phred quality score <10) of raw reads were trimmed using BBduk. Then the RNA-seq reads were mapped to the S. enterica serovar Typhimurium reference genome and the three plasmids pSLT SL1344, pCol1B9 SL1344, and pRSF1010 SL1344 ([37]) using BBMap (v38.18) and genomic features were assigned using the featureCounts command of the Subread (2.0.1) package ([38]). For the coverage plots in Figure 8, the bamCoverage (v3.3.2) method of the deepTools platform was applied ([39]).
Downstream RNA-seq analysis was performed using packages from the R/Bioconductor project. Raw read counts of all conditions were imported into edgeR (v3.34.1) ([40]) and analysed for differential expression. To filter low-count reads, features with less than 1.38 counts per million (CPM) in at least 5 libraries were ignored for further analysis. The cutoff of 1.38 CPM was set to 10/L, with L being the minimum library size across all samples in millions, as described in ([41]). Libraries were normalized using edgeR’s trimmed mean of M values (TMM) normalization ([40]). The glmFit function was applied to estimate quasi-likelihood dispersions and contrasts for differential expression analysis were tested using the glmQLTest function. […]

The subject of series [3] is Salmonella. Description: RNA-seq, global transcriptome (PCA). The note with it: 5 µM KFF-ASO conjugate or peptide, 15 min; two independent RNA-seq experiments. How it is done:
as §1, §2
For transcriptomic analyses, RNA samples were processed and subjected to RNA-seq at Core Unit SysMed (University of Würzburg, Germany). Sequencing was run using a previously published protocol ([31]). […] Sequencing of pooled libraries, spiked with 5% PhiX control library, was performed at 10 million reads/sample in single-end mode with 75 nt read length on the NextSeq 500 platform (Illumina) using High output sequencing kits. […]
RNA-seq data analysis was performed similarly to our previous analysis of PNA activity in S. enterica ([30]). Briefly, adapters and low-quality bases (Phred quality score <10) of raw reads were trimmed using BBduk. Then the RNA-seq reads were mapped to the S. enterica serovar Typhimurium reference genome and the three plasmids pSLT SL1344, pCol1B9 SL1344, and pRSF1010 SL1344 ([37]) using BBMap (v38.18) and genomic features were assigned using the featureCounts command of the Subread (2.0.1) package ([38]). […]
Downstream RNA-seq analysis was performed using packages from the R/Bioconductor project. Raw read counts of all conditions were imported into edgeR (v3.34.1) ([40]) and analysed for differential expression. To filter low-count reads, features with less than 1.38 counts per million (CPM) in at least 5 libraries were ignored for further analysis. […]

Oligonucleotides are written 5' to 3', each unit as a sugar letter and its base; * is a phosphorothioate linkage, no mark a phosphodiester; rarer units and linkages stand in square brackets, end groups in braces. Plain capitals give the bases only. d = 2'-deoxy (DNA)

In the case of “DNA-PTO: 10mer phosphorothioate-modified DNA antisense oligomer, sequence CTCATACTCT, targeting acpP (antisense dC*dT*dC*dA*dT*dA*dC*dT*dC*dT)”, the Outer-membrane permeation entry in series [1] is listed as “-”. Further, the “acpP depletion (RNA-seq)” value in series [2] is “-”.
In the case of “LNA: 10mer 2'-4'-locked RNA antisense oligomer, sequence CTCATACTCT, targeting acpP (all LNA, backbone and methylation of C not given here)”, in series [1], the Outer-membrane permeation entry was “-”. Further, in series [2], the “acpP mRNA depletion (in words)” value is given as “slight effect” and the “acpP depletion (RNA-seq)” value is given as “-”.
Consider “PMO: 10mer phosphorodiamidate morpholino antisense oligomer, sequence CTCATACTCT, targeting acpP (all phosphorodiamidate morpholino (PMO))”, for which, in series [3], the “PCA cluster of the transcriptomic response” value (from here on “PCA cluster”) was “cluster 3”. Besides, in series [1], the Outer-membrane permeation entry is on record as “++” and the “Outer membrane permeabilization, NPN fluorescence (in words)” value was “this ability is retained”.
As to “PNA: 10mer peptide nucleic acid antisense oligomer, sequence CTCATACTCT, targeting acpP (all peptide nucleic acid (PNA))”, the “PCA cluster” value in series [3] was “cluster 1”. Besides, in series [1], the Outer-membrane permeation result is reported as “++” and the “Outer membrane permeabilization, NPN fluorescence (in words)” value was “this ability is retained”. In addition, the “acpP mRNA depletion (in words)” value in series [2] is on record as “reduced the levels of acpP mRNA”.
“RNA-F: 10mer 2'-fluorinated RNA antisense oligomer, sequence CTCATACTCT, targeting acpP (all 2'-fluoro, backbone and T or U not given here)”: the Outer-membrane permeation entry in series [1] is “-”. Also, the “acpP depletion (RNA-seq)” value in series [2] was “-”.
With “RNA-MOE: 10mer 2'-methoxyethylated RNA antisense oligomer, sequence CTCATACTCT, targeting acpP (all 2'-MOE, backbone and methylation of C not given here)”, the “PCA cluster” value in series [3] is “cluster 1”. The Outer-membrane permeation entry in series [1] is “-”. Further, the “acpP depletion (RNA-seq)” value in series [2] is “-”.
Regarding “RNA-OMe: 10mer 2'-methylated RNA antisense oligomer, sequence CTCATACTCT, targeting acpP (all 2'-O-methyl, backbone and T or U not given here)”, the “PCA cluster” value in series [3] is on record as “cluster 1”. Moreover, the Outer-membrane permeation entry in series [1] is “-”. Besides, the “acpP depletion (RNA-seq)” value in series [2] is “-”.
